A short description of series [1]: Parallel Artificial Membrane Permeation Assay (PAMPA). The series is classed as in vitro ADME. As to conditions: Flux (%) = (c acceptor well) / sum (c donor well + c acceptor well) × 100 × 2; PBS pH 7.4, 15-16 h at rt. How it is done: For the PAMPA, 5 mM stock solutions of test items were prepared in DMSO. 5 mM stock solutions of reference items were prepared in EtOH (carbamazepine, guanabenz) or in EtOH:H2O 1:1 (v/v) (ceftriaxone), respectively. Compounds were diluted in PBS (pH 7.4) to obtain the starting solutions containing 5% of the respective organic solvent and 250 μM reference compounds or 10 μM test items, respectively. For the assay, a modified procedure of the PAMPA as described by Kansy et al. Kansy et al. (J. Med. Chem. 1998, 41, 1007) was used. The reference compounds for low (ceftriaxone), medium (guanabenz) and high permeation (carbamazepine) were included as internal controls.
Permeation experiments were carried out in a Multiscreen 96 well tray (donor) covered by a 96-well Multiscreen Immobilon (acceptor). The hydrophobic filter material of the Immobilon plate was pre-wetted with 70% ethanol and treated with a solution of lipids (lecithin dissolved in dodecane). The donor plate was filled with test compounds and reference compounds and both plates were inserted into each other and placed onto an orbital shaker for 15 min at 100 rpm. The transport study was started by applying 150 μL PBS-buffer containing the test and reference compounds to the donor plate. After 15-16 h of diffusion at rt, the contents of the acceptor and donor plate were collected and quantified using LC/MS-detection (test items) or by UV spectroscopy using a Spectramax Plus^384 (Molecular Devices) (reference items). The absorption maxima for the reference items ceftriaxone, guanabenz and carbamazepine were 240 nm, 270 nm and 286 nm, respectively. Recovery samples were prepared as described for the permeation assay samples and were incubated in representative vials during the permeation period under the same conditions.
For LC/MS analysis of the test items, 100 μL incubate were removed from acceptor and donor compartment and processed for acetonitrile (ACN) precipitation as described below. Additionally, test item samples from the lipid layer were extracted by flushing each well two times with 150 μL EA. The solutions were collected in 1.5 mL reaction tubes and the solvent was evaporated. The dried residues were resuspended in a PBS/DMSO/ACN mixture reflecting the composition of the acceptor and donor samples (i.e. 100 μL buffer supplemented with 5% DMSO, 200 μL ACN+ISTD). The final solvent content of each sample was 66% ACN.
Samples from donor and acceptor compartments and calibration standards were precipitated by addition of 200 μL ACN/ISTD or 400 μL ACN/ISTD, respectively. After vigorous shaking (10 seconds) and centrifugation (5 min at 4800×g, rt), the particle free supernatants were subjected to LC-MS/MS. Membrane compartments were extracted as described above. […]

The nature of series [2]: Aqueous solubility assay. Format: physicochemical. The note with it: PBS buffer, kinetic from dmso stock, pH 7.4, theoretical final concentration of 200 μM. How it is done: The aq. solubility in PBS, pH 7.4 was determined as follows. A 10 mM compound stock solution in DMSO was added to PBS (pH 7.4) to reach a theoretical final concentration of 200 μM. The resulting solution/suspension was shaken at 1250 rpm for 1 h and then stored in the dark at rt for 23 h. At this time any precipitate is separated from the solution by centrifugation at 3900 rpm for 30 min. The aq. solubility was determined by comparing the peak area of the principle peak in a calibration standard (200 μM) in an organic solvent (methanol/water 60:40, v/v) with the peak area of the corresponding peak in the buffer sample. As detection method was used HPLC-UV/VIS at 230 nm.

In series [3] the target is T1, human FXR alpha ligand binding domain (Homo sapiens, UniProt Q96RI1).
T1 construct: made in house; host or cells: E. coli BL21(DE3), vector pDEST15
T1 sequence (Q96RI1 187-472 isoform Q96RI1-2): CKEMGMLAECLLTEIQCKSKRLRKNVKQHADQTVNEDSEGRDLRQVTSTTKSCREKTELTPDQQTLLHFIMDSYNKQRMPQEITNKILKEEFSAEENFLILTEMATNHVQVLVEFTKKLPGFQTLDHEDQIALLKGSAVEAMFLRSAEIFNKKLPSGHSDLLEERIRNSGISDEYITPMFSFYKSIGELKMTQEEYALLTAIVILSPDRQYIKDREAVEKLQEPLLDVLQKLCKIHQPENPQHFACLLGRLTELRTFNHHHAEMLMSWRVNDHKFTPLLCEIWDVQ
The series is described as follows: FRET activity assay (ligand mediated cofactor peptide interaction). The series is classed as biochemical. The note with it: FXR-LBD/SRC-1 peptide interaction, LANCE; read-out: EC50 (Group), FRET activity assay. How it is done:
Determination of a ligand mediated cofactor peptide interaction to quantify ligand binding to the nuclear receptor FXR was performed as follows: Preparation of human FXR alpha ligand binding domain: The human FXRalpha LBD was expressed in E. coli strain BL21(DE3) as an N-terminally GST tagged fusion protein. The DNA encoding the FXR ligand binding domain was cloned into vector pDEST15 (Invitrogen). Expression was under control of an IPTG inducible T7 promoter. The amino acid boundaries of the ligand binding domain were amino acids 187-472 of Database entry NM_005123 (RefSeq). Expression and purification of the FXR-LBD: An overnight preculture of a transformed E. coli strain was diluted 1:20 in LB-Ampicillin medium and grown at 30° C. to an optical density of OD600=0.4-0.6. Gene expression was then induced by addition of 0.5 mM IPTG. Cells were incubated an additional 6 h at 30° C., 180 rpm. Cells were collected by centrifugation (7000×g, 7 min, rt). Per liter of original cell culture, cells were resuspended in 10 mL lysis buffer (50 mM Glucose, 50 mM Tris pH 7.9, 1 mM EDTA and 4 mg/mL lysozyme) and left on ice for 30 min. Cells were then subjected to sonication and cell debris removed via centrifugation (22000×g, 30 min, 4° C.). Per 10 mL of supernatant 0.5 mL prewashed Glutathione 4B sepharose slurry (Qiagen) was added and the suspension kept slowly rotating for 1 h at 4° C. Glutathione 4B sepharose beads were pelleted by centrifugation (2000×g, 15 sec, 4° C.) and washed twice in wash buffer (25 mM Tris, 50 mM KCl, 4 mM MgCl2 and 1M NaCl). The pellet was resuspended in 3 mL elution buffer per liter of original culture (elution buffer: 20 mM Tris, 60 mM KCl, 5 mM MgCl2 and 80 mM glutathione added immediately prior to use as powder). The suspension was left rotating for 15 min at 4° C., the beads pelleted and eluted again with half the volume of elution buffer than the first time. The eluates were pooled and dialysed overnight in 20 mM Hepes buffer (pH 7.5) containing 60 mM KCl, 5 mM MgCl2 as well as 1 mM dithiothreitol and 10% (v/v) glycerol. The protein was analysed by SDS-Page.
The method measures the ability of putative ligands to modulate the interaction between the purified bacterial expressed FXR ligand binding domain (LBD) and a synthetic biotinylated peptide based on residues 676-700 of SRC-1 (LCD2, 676-700). The sequence of the peptide used was B-[…]-COOH where the N-terminus was biotinylated (B). The ligand binding domain (LBD) of FXR was expressed as fusion protein with GST in BL-21 cells using the vector pDEST15. Cells were lysed by sonication, and the fusion proteins purified over glutathione sepharose (Pharmacia) according to the manufacturers instructions. For screening of compounds for their influence on the FXR-peptide interaction, the Perkin Elmer LANCE technology was applied. This method relies on the binding dependent energy transfer from a donor to an acceptor fluorophor attached to the binding partner of interest. For ease of handling and reduction of background from compound fluorescence LANCE technology makes use of generic fluorophore labels and time resolved detection Assays were done in a final volume of 25 μL in a 384 well plate, in a Tris-based buffer (20 mM Tris-HCl pH 7.5; 60 mM KCl, 5 mM MgCl2; 35 ng/μL BSA), containing 20-60 ng/well recombinantly expressed FXR-LBD fused to GST, 200-600 nM N-terminally biotinylated peptide, representing SRC1 aminoacids 676-700, 200 ng/well Streptavidin-xIAPC conjugate (Prozyme) and 6-10 ng/well Eu W1024-antiGST (Perkin Elmer). DMSO content of the samples was kept at 1%. After generation of the assay mix and diluting the potentially FXR modulating ligands, the assay was equilibrated for 1 h in the dark at rt in FIA-plates black 384 well (Greiner). The LANCE signal was detected by a Perkin Elmer VICTOR2VTM Multilabel Counter. The results were visualized by plotting the ratio between the emitted light at 665 and 615 nm. […]

Series [4] concerns the target T2, FXR ligand binding domain (Homo sapiens, UniProt Q96RI1).
T2 construct: expressed in transfected cells; host or cells: HEK293 (DSMZ), transient transfection with a pCMV-BD construct
T2 sequence (Q96RI1 187-472 isoform Q96RI1-2): T1 sequence (Q96RI1 187-472 isoform Q96RI1-2)
The series is described as follows: Mammalian One Hybrid (M1H) assay, Gal4 reporter in HEK293 cells. The note with it: Gal4-FXR LBD transactivation, HEK293 cells; read-out: EC50 potency range (Group), M1H assay. Format: cell-based. How it is done:
Determination of a ligand mediated Gal4 promoter driven transactivation to quantify ligand binding mediated activation of FXR was performed as follows: The cDNA part encoding the FXR ligand binding domain was cloned into vector pCMV-BD (Stratagene) as a fusion to the yeast GAL4 DNA binding domain under the control of the CMV promoter. […] The plasmid pFR-Luc (Stratagene) was used as the reporter plasmid, containing a synthetic promoter with five tandem repeats of the yeast GAL4 binding sites, driving the expression of the Photinus pyralis (American firefly) luciferase gene as the reporter gene. In order to improve experimental accuracy the plasmid pRL-CMV (Promega) was cotransfected. pRL-CMV contains the constitutive CMV promoter, controlling the expression of the Renilla reniformis luciferase. All Gal4 reporter gene assays were done in HEK293 cells (obtained from DSMZ, Braunschweig, Germany) grown in MEM with L-Glutamine and Earle's BSS supplemented with 10% fetal bovine serum, 0.1 mM nonessential amino acids, 1 mM sodium pyruvate, and 100 units Penicillin/[…] per mL at 37° C. in 5% CO2. Medium and supplements were obtained from Invitrogen. For the assay, […] were plated per well in 96 well plates in 100 μL per well MEM without Phenol Red and L-Glutamine and with Earle's BSS supplemented with 10% charcoal/dextran treated FBS (HyClone, South Logan, Utah), 0.1 mM nonessential amino acids, 2 mM glutamine, 1 mM sodium pyruvate, and 100 units Penicillin/[…] per mL, incubated at 37° C. in 5% CO2. The following day the cells were >90% confluence. […] MEM with the same composition as used for plating cells was added 2-4 h after addition of transfection mixture. Then compound stocks, prediluted in MEM were added (final vehicle concentration not exceeding 0.1%). […] All experiments were done in triplicates.

Structures are written as SMILES. In brackets after ≈: the same amount, converted by molar mass.

In the case of `O=C(O)c1cccc(C2CC2c2ccc(OCc3c(-c4c(Cl)cccc4Cl)noc3C3CC3)cc2Cl)c1` (centres unmarked) [reference compound], in series [1], the “PAMPA, Membrane permeability in % Flux” value turned out to be 13.6 % Flux. This compound had a solubility at 24 h in series [2] of 20 µM (≈ 11.1 µg/mL).

Compound `O=C(O)c1cccc(N2CC(O)(c3ccc(OCc4c(-c5c(Cl)cccc5Cl)noc4C4CC4)cc3Cl)C2)c1` had a solubility at 24 h in series [2] of 195 µM (≈ 114 µg/mL).

For `O=C(O)c1cccc([C@H]2C[C@](O)(c3ccc(OCc4c(-c5c(Cl)cccc5Cl)noc4C4CC4)cc3Cl)C2)c1` [drawing 47], the “PAMPA, Membrane permeability in % Flux” value in series [1] was determined as 24.0 % Flux. Moreover, the solubility at 24 h in series [2] was 192 µM (≈ 112 µg/mL).

For the compound `O=C(O)c1ccc(C2CC(O)(c3ccc(OCc4c(-c5c(Cl)cccc5Cl)noc4C4CC4)cc3Cl)C2)cc1` (centres unmarked), the “PAMPA, Membrane permeability in % Flux” value in series [1] is reported as 21.1 % Flux. Also, the concentration in solution in series [2] (solubility at 24 h) came to 192 µM (≈ 112 µg/mL).

Consider `O=C(O)c1ccc(C2CC2c2ccc(OCc3c(-c4c(Cl)cccc4Cl)noc3C3CC3)cc2Cl)cc1` (centres unmarked) [reference compound], for which, in series [1], the “PAMPA, Membrane permeability in % Flux” value came to 20.7 % Flux. Further, the solubility at 24 h in series [2] was determined as 72 µM (≈ 39.9 µg/mL).

`Cn1nc(C(=O)O)c2ccc(C3CC(O)(c4ccc(OCc5c(-c6c(Cl)cccc6Cl)noc5C5CC5)cc4Cl)C3)cc21` (centres unmarked) [Example 10, 6-(3-(2-Chloro-4-((5-cyclopropyl-3-(2,6-dichlorophenyl)isoxazol-4-yl)methoxy)phenyl)-3-hydroxycyclobutyl)-1-methyl-1H-indazole-3-carboxylic Acid]: the EC50 in series [3] was less than 25 nM; in series [4], 25 to 100 nM.

(Values after patent US10485795B2, “FXR (NR1H4) binding and activity modulating compounds” (Gilead Sciences, Inc., priority 2011, dated 2019).)
